Where “and” joins values, the source holds several entries; their conditions need not be identical. Equal entries are not always repeated. Entries after “also recorded” stand apart in the source; their conditions may differ. Where two headings read alike, the source gives them in different places.
Tests used:
[1] = target: T1, endogenous ENaC in HAE cells (Homo sapiens, UniProt P37088+P51168+P51170); conditions: human airway cells; stated jointly with mouse CCD; Carattino 2006; read-out: IC50, inhibition of ENaC activity; cited from earlier work
T1 construct: endogenous in cells; host or cells: primary human airway (bronchial) epithelial cells from transplant or donor lungs

[2] = target: T2, endogenous ENaC in mpkCCDc14 cells (Mus musculus, UniProt Q61180+Q9WU38+Q9WU39); test: Amiloride-sensitive short circuit current in mpkCCDc14 monolayers, Ussing chamber; type: cell-based; conditions: for Ki: mpkCCDc14 cells; for inhibition of amiloride sensitive short circuit currents: mpkCCDc14, increasing concentrations of peptide; for inhibition of transepithelial Na+ transport: peptide 3 μM in apical chamber; for reversibility of inhibition on washout: peptide 3 μM
T2 construct: endogenous ENaC in a mouse cortical collecting duct (mpkCCDc14) cell line; endogenous in cells; host or cells: mpkCCDc14 mouse cortical collecting duct cell line
Procedure: mpkCCDc14 Cell Culture—mpkCCDc14 cells were grown as previously reported (Bens, M., Vallet, V., Cluzeaud, F., Pascual-Letallec, L., Kahn, A., Rafestin-Oblin, M. E., Rossier, B. C., and Vandewalle, A. (1999), Corticosteroid-dependent sodium transport in a novel immortalized mouse collecting duct principal cell line, J. Am. Soc. Nephrol. 10, 923-934). mpkCCDc14 cells were subcultured onto permeable filter supports coated with collagen (0.4-μm pore size, 1-cm^2 surface area, Snapwell filters; Coming Inc., Acton, Mass.). Cells were kept on filters for at least 4 days in defined medium (Bens, M., Vallet, V., Cluzeaud, F., Pascual-Letallec, L., Kahn, A., Rafestin-Oblin, M. E., Rossier, B. C., and Vandewalle, A. (1999) J. Am. Soc. Nephrol. 10, 923-934 30) that was changed every second day. At least 24 h prior to the experiments, the culture medium was replaced with a minimal medium (without drugs or hormones) that contained only Dulbecco's modified Eagle's medium and Ham's F-12.
Short Circuit Current Measurements—Cell culture inserts were mounted in modified Ussing chambers (Harvard Apparatus, Holliston, Mass.), and the monolayers were continuously short-circuited with a voltage/current clamp system (Physiologic Instruments, San Diego, Calif.). A 2-mV bipolar pulse was applied periodically to measure the resistance of the monolayer. As previously described by Bridges et al. (Bridges, R. J., Newton, B. B., Pilewski, J. M., Devor, D. C., Poll, C. T., and Hall, R. L. (2001), Na+ transport in normal and CF human bronchial epithelial cells is inhibited by BAY 39-9437, Am. J. Physiol. 281, L16-L23 32, Na^+ transport in normal and CF human bronchial epithelial cells is inhibited by BAY 39-9437), the bath solution contained (in mM) 120 NaCl, 25 NaHCO3, 3.3 KH2PO4, 0.8 K2HPO4, 1.2 MgCl2, 1.2 CaCl2, and 10 glucose. The pH of this solution was 7.4 when gassed with a mixture of 95% O2-5% CO2 at 37° C.
(FIG. 6A) mpkCCDc14cells cultured on permeable membrane supports and mounted in a modified Ussing chamber were continuously short-circuited by a voltage clamp amplifier (Physiologic Instruments, San Diego, Calif.). Transepithelial resistance was monitored by applying a 4 mV bipolar pulse every 60 seconds. Where indicated, a 43 residue peptide corresponding to E144-K186 of mouse γ-ENaC (γ-peptide) was added to the apical chamber at a final concentration of 3 μM. […] Data presented as mean +/−standard error (n=8).
Vectors and Cell Culture—Wild-type, C-terminal and double epitope tagged mouse ENaC subunit cDNAs were previously described (Hughey, R. P., Mueller, G. M., Bruns, J. B., Kinlough, C. L., Poland, P. A., Harkleroad, K. L., Carattino, M. D., and Kleyman, T. R. (2003) J Biol Chem 278, 37073-37082 and Ahn, Y. J., Brooker, D. R., Kosari, F., Harte, B. J., Li, J., Mackler, S. A., and Kleyman, T. R. (1999), Cloning and functional expression of the mouse epithelial sodium channel, Am J Physiol 277, F121-129). The γ subunit mutations were generated in pcDNA3.1 (+) using a standard two-step PCR method. A cDNA clone (IMAGE #: 3600399) encoding full length mouse prostasin was obtained from Open Biosystems (Huntsville, Ala.) and sub-cloned into pcDNA3.1 (+) (Invitrogen, Carlsbad, Calif.). MDCK type 1 cells were a gift from Barry M. Gumbiner (Memorial Sloan-Kettering Cancer Center, New York) and were cultured as previously described (Lavelle, J. P., Negrete, H. O., Poland, P. A., Kinlough, C. L., Meyers, S. D., Hughey, R. P., and Zeidel, M. L. (1997), Low permeabilities of MDCK cell monolayers: a model barrier epithelium, Am J Physiol 273, F67-75). CCD (mpkCCDc14) cells were a gift from Alain Vandewalle (Institut National de la Santéet de la Recherche Médicale, Paris, France) and were cultured as previously described (Bens, M., Vallet, V., Cluzeaud, F., Pascual-Letallec, L., Kahn, A., Rafestin-Oblin, M. E., Rossier, B. C., and Vandewalle, A. (1999) J Am Soc Nephrol 10, 923-934).

T2 sequence (Q61180 1-205): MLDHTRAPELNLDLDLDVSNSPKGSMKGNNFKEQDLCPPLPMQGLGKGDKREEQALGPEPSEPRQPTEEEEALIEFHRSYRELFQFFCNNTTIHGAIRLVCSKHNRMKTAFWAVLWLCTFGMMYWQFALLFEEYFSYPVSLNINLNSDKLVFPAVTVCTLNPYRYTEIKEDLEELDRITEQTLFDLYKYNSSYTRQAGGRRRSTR
T2 sequence (Q61180 232-699): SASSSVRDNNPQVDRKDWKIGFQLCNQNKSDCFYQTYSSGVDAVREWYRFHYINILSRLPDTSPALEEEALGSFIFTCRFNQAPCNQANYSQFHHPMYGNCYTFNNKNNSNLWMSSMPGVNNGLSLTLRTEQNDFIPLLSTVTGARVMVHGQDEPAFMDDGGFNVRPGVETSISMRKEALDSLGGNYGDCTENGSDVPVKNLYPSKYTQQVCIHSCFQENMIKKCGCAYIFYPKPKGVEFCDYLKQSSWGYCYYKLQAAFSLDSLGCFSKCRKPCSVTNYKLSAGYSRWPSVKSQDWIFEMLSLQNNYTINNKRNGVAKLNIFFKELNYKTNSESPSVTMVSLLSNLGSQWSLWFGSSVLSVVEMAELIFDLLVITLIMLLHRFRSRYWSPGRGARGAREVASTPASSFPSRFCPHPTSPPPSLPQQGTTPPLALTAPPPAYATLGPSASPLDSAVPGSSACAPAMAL
T2 sequence (Q9WU38 whole entry): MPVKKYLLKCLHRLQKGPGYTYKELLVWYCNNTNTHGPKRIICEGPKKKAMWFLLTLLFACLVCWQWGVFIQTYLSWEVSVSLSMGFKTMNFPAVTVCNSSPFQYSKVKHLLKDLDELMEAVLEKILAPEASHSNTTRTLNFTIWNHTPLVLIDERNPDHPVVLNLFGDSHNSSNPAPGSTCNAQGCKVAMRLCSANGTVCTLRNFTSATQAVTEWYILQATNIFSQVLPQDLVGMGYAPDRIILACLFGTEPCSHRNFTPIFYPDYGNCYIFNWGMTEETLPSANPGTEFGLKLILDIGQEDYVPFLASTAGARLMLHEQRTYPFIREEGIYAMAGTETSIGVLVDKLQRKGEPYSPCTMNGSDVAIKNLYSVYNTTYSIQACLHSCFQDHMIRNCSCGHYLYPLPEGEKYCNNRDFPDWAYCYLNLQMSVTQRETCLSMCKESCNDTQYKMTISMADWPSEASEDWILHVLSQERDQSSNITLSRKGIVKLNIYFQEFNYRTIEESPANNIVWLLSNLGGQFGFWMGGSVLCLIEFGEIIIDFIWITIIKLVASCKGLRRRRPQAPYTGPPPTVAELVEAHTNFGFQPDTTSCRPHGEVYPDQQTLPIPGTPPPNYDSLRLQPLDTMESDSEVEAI
T2 sequence (Q9WU39 1-143): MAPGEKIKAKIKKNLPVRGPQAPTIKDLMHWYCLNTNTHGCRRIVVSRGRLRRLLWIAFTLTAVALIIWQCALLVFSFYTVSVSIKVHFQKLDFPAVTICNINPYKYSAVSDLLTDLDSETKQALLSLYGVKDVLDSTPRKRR
T2 sequence (Q9WU39 187-655): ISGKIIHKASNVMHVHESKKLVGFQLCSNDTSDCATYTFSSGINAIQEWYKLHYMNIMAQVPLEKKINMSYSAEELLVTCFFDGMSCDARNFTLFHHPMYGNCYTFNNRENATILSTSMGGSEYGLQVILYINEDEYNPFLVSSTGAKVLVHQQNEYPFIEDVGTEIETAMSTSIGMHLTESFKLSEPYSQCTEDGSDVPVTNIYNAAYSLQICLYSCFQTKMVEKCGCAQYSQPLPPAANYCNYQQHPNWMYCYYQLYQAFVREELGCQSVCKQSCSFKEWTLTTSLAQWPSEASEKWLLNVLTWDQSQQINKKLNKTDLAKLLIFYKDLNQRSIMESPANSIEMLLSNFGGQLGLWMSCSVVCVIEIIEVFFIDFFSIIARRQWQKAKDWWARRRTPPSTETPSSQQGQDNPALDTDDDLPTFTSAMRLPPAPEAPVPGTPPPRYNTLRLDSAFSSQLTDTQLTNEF
T1 sequence (P37088 1-178): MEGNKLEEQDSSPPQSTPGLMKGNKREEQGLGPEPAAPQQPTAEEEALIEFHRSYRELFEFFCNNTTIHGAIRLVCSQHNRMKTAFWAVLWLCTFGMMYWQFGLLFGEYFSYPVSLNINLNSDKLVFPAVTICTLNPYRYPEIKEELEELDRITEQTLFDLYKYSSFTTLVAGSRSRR
T1 sequence (P37088 205-669): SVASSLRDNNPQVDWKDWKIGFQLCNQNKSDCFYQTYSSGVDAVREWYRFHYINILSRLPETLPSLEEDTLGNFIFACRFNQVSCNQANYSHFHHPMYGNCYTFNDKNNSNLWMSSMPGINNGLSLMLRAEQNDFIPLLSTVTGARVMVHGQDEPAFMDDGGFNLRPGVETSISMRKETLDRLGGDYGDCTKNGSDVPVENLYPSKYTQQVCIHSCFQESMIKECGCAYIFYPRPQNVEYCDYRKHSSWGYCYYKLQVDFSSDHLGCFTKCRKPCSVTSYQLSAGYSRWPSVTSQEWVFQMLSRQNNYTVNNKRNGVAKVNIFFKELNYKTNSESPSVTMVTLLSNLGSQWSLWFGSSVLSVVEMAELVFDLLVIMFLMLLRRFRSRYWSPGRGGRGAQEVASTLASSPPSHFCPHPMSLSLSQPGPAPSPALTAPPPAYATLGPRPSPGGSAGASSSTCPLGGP
T1 sequence (P51168 whole entry): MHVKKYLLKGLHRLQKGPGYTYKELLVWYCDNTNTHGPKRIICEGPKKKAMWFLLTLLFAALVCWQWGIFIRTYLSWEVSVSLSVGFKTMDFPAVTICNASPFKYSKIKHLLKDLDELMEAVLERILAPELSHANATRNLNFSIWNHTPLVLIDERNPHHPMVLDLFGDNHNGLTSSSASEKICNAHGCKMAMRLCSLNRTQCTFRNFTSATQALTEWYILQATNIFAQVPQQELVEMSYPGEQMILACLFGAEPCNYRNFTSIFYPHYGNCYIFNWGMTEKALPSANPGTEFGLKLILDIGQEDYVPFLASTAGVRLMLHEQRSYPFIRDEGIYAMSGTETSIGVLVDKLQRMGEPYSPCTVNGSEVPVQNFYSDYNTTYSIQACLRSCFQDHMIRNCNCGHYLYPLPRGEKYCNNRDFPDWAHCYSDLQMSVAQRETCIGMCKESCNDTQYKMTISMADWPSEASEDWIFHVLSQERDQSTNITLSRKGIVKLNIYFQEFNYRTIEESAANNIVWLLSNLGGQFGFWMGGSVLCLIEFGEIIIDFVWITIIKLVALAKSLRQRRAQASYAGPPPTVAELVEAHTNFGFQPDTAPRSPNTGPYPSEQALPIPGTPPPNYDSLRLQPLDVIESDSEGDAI
T1 sequence (P51170 1-138): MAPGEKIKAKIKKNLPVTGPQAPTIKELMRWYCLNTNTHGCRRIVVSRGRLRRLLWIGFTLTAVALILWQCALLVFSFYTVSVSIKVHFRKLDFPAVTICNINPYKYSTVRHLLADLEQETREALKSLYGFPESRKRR
T1 sequence (P51170 182-649): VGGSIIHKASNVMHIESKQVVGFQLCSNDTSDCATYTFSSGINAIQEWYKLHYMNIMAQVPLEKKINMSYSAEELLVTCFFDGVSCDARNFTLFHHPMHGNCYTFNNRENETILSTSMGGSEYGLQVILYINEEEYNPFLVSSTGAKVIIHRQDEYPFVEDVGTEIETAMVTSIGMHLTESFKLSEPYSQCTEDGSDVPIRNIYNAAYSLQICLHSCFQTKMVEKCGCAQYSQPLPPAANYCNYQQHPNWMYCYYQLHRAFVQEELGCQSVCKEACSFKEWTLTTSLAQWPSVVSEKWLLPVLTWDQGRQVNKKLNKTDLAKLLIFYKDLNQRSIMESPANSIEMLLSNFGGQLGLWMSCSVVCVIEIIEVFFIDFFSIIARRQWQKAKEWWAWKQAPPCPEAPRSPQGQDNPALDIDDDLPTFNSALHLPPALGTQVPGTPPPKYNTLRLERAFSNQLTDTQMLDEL

| Substance | IC50 [1] | Ki ([2]; stated jointly for HBE or mpkCCDc14, read-out: Ki, block of endogenous ENaC activity) | increase of the IC50 for amiloride block ([2]; CCD cells, 3 μM γ-43) | IC50 ([2]; mouse CCD (mpkCCDc14), nonlinear curve fitting, read-out: IC50, inhibition of short circuit currents) | inhibition of amiloride sensitive short circuit currents ([2]; listed as γ cleavage product) | inhibition of amiloride sensitive short circuit currents ([2]; listed as γ-peptide) | Ki ([2]; stated jointly for HBE and mpkCCDc14, read-out: apparent Ki, inhibition of endogenous ENaC activity) | inhibition of transepithelial Na+ transport [2] | inhibition of transepithelial Na+ transport ([2]; listed as γ-peptide) | reversibility of inhibition on washout [2] | reversibility of inhibition on washout ([2]; listed as γ-peptide) |
| --- | --- | --- | --- | --- | --- | --- | --- | --- | --- | --- | --- |
| Ac-DLRGALPHPLQRLRTPPPPNPARSAR-NH2 [α-26] | 50 to 100 µM | 50 to 100 µM |  |  |  |  |  |  |  |  |  |
| Ac-EAGSMRSTWEGTPPRFLNLIPLLVFNENEKGKARDFFTGRKRK-NH2 [γ-43] |  |  | 60% | 2 to 3 µM and 3.2 µM | inhibited in a dose dependent manner | inhibited in a dose dependant manner | ~2 µM | rapidly inhibited; also recorded: marked inhibition | marked inhibition | reversible; also recorded: relieved by washout | reversibly inhibits; also recorded: relieved by wash out |

Source: patent US20070149456A1, “Epithelial sodium channel inhibiting agents and uses therefor” (University of Pittsburgh, priority 2005, published 2007)
